# Measured values published in patent publication US5612329A (priority 1995, dated 1997).
# Legend:
# [1] = system: CCRF-CEN cells; experiment: In vitro cytotoxicity / cell growth inhibition, leukemia; format: cell-based; details: Homo sapiens, 48 hr, read-out: log10 G150 (converted)
# Protocol: (§1) The anti-proliferative activities of the aziridinylpolyamines obtained in Synthesis Examples 1-4 were assessed by determining log10 G150 values against human cancer cell lines using the screening strategy described by Boyd et al, Drug Devel. Res. 34:91-109 (1995).
# (§2) More specifically, the compounds were tested at a minimum of five concentrations at 10-fold dilutions using a 48 hr continuous exposure protocol. Each cell line shown in Table 1 below was inoculated onto microtiter plates. After a pre-incubation period of 24-48 hr at 37° C., the test compounds were added, and the culture was incubated for an additional 48 hr at 37° C. Cell viability or cell growth end-point determinations were performed by fixation of the cells, followed by staining with sulforhodamine B (Monks et al, J. Natl. Cancer Inst., 83:757-766 (1991)).
# [2] = system: K-562 cells; experiment: as above; format: cell-based; details: Homo sapiens, K562; K-562, leukemia, 48 hr; read-out: log10 G150 (converted)
# Protocol: as §1, §2
# [3] = system: MOLT-4 cells; experiment: as above; format: cell-based; details: Homo sapiens; MOLT-4, leukemia, 48 hr; read-out: log10 G150 (converted)
# Protocol: as §1, §2
# [4] = system: RPMI-8226 cells; experiment: as above; format: cell-based; details: Homo sapiens; RPMI-8226, leukemia, 48 hr; read-out: log10 G150 (converted)
# Protocol: as §1, §2
# [5] = system: SR cells; experiment: as above; format: cell-based; details: Homo sapiens, 48 hr, read-out: log10 G150 (converted)
# Protocol: as §1, §2
# [6] = system: HL-60 (TB) cells; experiment: cells; format: cell-based; details: Homo sapiens, leukemia, 48 hr, read-out: log10 G150 (converted)
# [7] = system: A549/ATCC cells; experiment: In vitro cytotoxicity / cell growth inhibition, non-small cell lung cancer; format: cell-based; details: Homo sapiens, 48 hr, read-out: log10 G150 (converted)
# Protocol: as §1, §2
# [8] = system: EKVX cells; experiment: as above; format: cell-based; details: Homo sapiens, 48 hr, read-out: log10 G150 (converted)
# Protocol: as §1, §2
# [9] = system: HOP-62 cells; experiment: as above; format: cell-based; details: Homo sapiens; HOP-62, non-small cell lung cancer, 48 hr; read-out: log10 G150 (converted)
# Protocol: as §1, §2
# [10] = system: HOP-92 cells; experiment: as above; format: cell-based; details: Homo sapiens; HOP-92, non-small cell lung cancer, 48 hr; read-out: log10 G150 (converted)
# Protocol: as §1, §2
# [11] = system: NCl-H226 cells; experiment: as above; format: cell-based; details: Homo sapiens, 48 hr, read-out: log10 G150 (converted)
# Protocol: as §1, §2
# [12] = system: NCl-H23 cells; experiment: as above; format: cell-based; details: Homo sapiens, 48 hr, read-out: log10 G150 (converted)
# Protocol: as §1, §2
# [13] = system: NCl-H322M cells; experiment: as above; format: cell-based; details: Homo sapiens, 48 hr, read-out: log10 G150 (converted)
# Protocol: as §1, §2
# [14] = system: NCl-H460 cells; experiment: as above; format: cell-based; details: Homo sapiens, 48 hr, read-out: log10 G150 (converted)
# Protocol: as §1, §2
# [15] = system: NCl-H522 cells; experiment: as above; format: cell-based; details: Homo sapiens, 48 hr, read-out: log10 G150 (converted)
# Protocol: as §1, §2
# [16] = system: COLO 205 cells; experiment: In vitro cytotoxicity / cell growth inhibition, colon cancer; format: cell-based; details: Homo sapiens; COLO 205, colon cancer, 48 hr; read-out: log10 G150 (converted)
# Protocol: as §1, §2
# [17] = system: HCC-2998 cells; experiment: as above; format: cell-based; details: Homo sapiens; HCC-2998, colon cancer, 48 hr; read-out: log10 G150 (converted)
# Protocol: as §1, §2
# [18] = system: HCT-116 cells; experiment: as above; format: cell-based; details: Homo sapiens; HCT-116, colon cancer, 48 hr; read-out: log10 G150 (converted)
# Protocol: as §1, §2
# [19] = system: HCT-15 cells; experiment: as above; format: cell-based; details: Homo sapiens; HCT-15, colon cancer, 48 hr; read-out: log10 G150 (converted)
# Protocol: as §1, §2
# [20] = system: HT29 cells; experiment: as above; format: cell-based; details: Homo sapiens, HT-29, 48 hr, read-out: log10 G150 (converted)
# Protocol: as §1, §2
# [21] = system: KM12 cells; experiment: as above; format: cell-based; details: Homo sapiens, 48 hr, read-out: log10 G150 (converted)
# Protocol: as §1, §2
# [22] = system: SW-620 cells; experiment: as above; format: cell-based; details: Homo sapiens; SW-620, colon cancer, 48 hr; read-out: log10 G150 (converted)
# Protocol: as §1, §2
# [23] = system: SF-268 cells; experiment: In vitro cytotoxicity / cell growth inhibition, CNS cancer; format: cell-based; details: Homo sapiens; SF-268, CNS cancer, 48 hr; read-out: log10 G150 (converted)
# Protocol: as §1, §2
# [24] = system: SF-295 cells; experiment: as above; format: cell-based; details: Homo sapiens; SF-295, CNS cancer, 48 hr; read-out: log10 G150 (converted)
# Protocol: as §1, §2
# [25] = system: SF-539 cells; experiment: as above; format: cell-based; details: Homo sapiens; SF-539, CNS cancer, 48 hr; read-out: log10 G150 (converted)
# Protocol: as §1, §2
# [26] = system: SNB-19 cells; experiment: as above; format: cell-based; details: Homo sapiens; SNB-19, CNS cancer, 48 hr; read-out: log10 G150 (converted)
# Protocol: as §1, §2
# [27] = system: SNB-75 cells; experiment: as above; format: cell-based; details: Homo sapiens; SNB-75, CNS cancer, 48 hr; read-out: log10 G150 (converted)
# Protocol: as §1, §2
# [28] = system: U251 cells; experiment: as above; format: cell-based; details: Homo sapiens, U-251, 48 hr, read-out: log10 G150 (converted)
# Protocol: as §1, §2
# [29] = system: 786-0 cells; experiment: In vitro cytotoxicity / cell growth inhibition, renal cancer; format: cell-based; details: Homo sapiens; 786-0, renal cancer, 48 hr; read-out: log10 G150 (converted)
# Protocol: as §1, §2
# [30] = system: A498 cells; experiment: as above; format: cell-based; details: Homo sapiens, 48 hr, read-out: log10 G150 (converted)
# Protocol: as §1, §2
# [31] = system: ACHN cells; experiment: as above; format: cell-based; details: Homo sapiens, 48 hr, read-out: log10 G150 (converted)
# Protocol: as §1, §2
# [32] = system: CAKI-1 cells; experiment: as above; format: cell-based; details: Homo sapiens; CAKI-1, renal cancer, 48 hr; read-out: log10 G150 (converted)
# Protocol: as §1, §2
# [33] = system: RXF-393 cells; experiment: as above; format: cell-based; details: Homo sapiens; RXF-393, renal cancer, 48 hr; read-out: log10 G150 (converted)
# Protocol: as §1, §2
# [34] = system: SN12C cells; experiment: as above; format: cell-based; details: Homo sapiens, 48 hr, read-out: log10 G150 (converted)
# Protocol: as §1, §2
# [35] = system: TK-10 cells; experiment: as above; format: cell-based; details: Homo sapiens; TK-10, renal cancer, 48 hr; read-out: log10 G150 (converted)
# Protocol: as §1, §2
# [36] = system: UO-31 cells; experiment: as above; format: cell-based; details: Homo sapiens; UO-31, renal cancer, 48 hr; read-out: log10 G150 (converted)
# Protocol: as §1, §2
# [37] = system: cancer cell lines; details: cited from earlier work
# [38] = system: prostatic carcinoma cells; details: cited from earlier work
# [39] = system: polyamine transporter; details: vs longer polyamines such as spermine and spermidine; cited from earlier work
# [40] = system: DNA; details: compared with chlorambucil per se; cited from earlier work
# [41] = relative to level predicted from in vitro studies; cited from earlier work
# [42] = system: cells; details: suggested by the biological activity profile; cited from earlier work
SMILES,GI50 [1] [µM],GI50 [2] [µM],GI50 [3] [µM],GI50 [4] [µM],GI50 [5] [µM],GI50 [6] [µM],GI50 [7] [µM],GI50 [8] [µM],GI50 [9] [µM],GI50 [10] [µM],GI50 [11] [µM],GI50 [12] [µM],GI50 [13] [µM],GI50 [14] [µM],GI50 [15] [µM],GI50 [16] [µM],GI50 [17] [µM],GI50 [18] [µM],GI50 [19] [µM],GI50 [20] [µM],further results
"CC1CN1CCCNCCCCNCCCN1CC1C (stereo not shown) [Synthesis Example 4, 1,12-Di-(2-methyl-1-aziridinyl)-4,9-diazadodecane]",3.98,29.5,2.95,31.6,4.9,2.95,18.2,32.4,10.7,14.5,19.1,8.71,91.2,9.12,7.24,10,19.1,20.9,> 100,20.4,GI50 [21]: 64.6 µM; GI50 [22]: 41.7 µM; GI50 [23]: 20.4 µM; GI50 [24]: 47.9 µM; GI50 [25]: 12.9 µM; GI50 [26]: 25.7 µM; GI50 [27]: 2.34 µM; GI50 [28]: 13.2 µM; GI50 [29]: 4.47 µM; GI50 [30]: > 100 µM; GI50 [31]: 19.1 µM; GI50 [32]: 3.47 µM; GI50 [33]: 11 µM; GI50 [34]: 9.77 µM; GI50 [35]: 11.7 µM; GI50 [36]: 17.4 µM
"NCCCCNCCCN1CC1 [N-(3-aziridinylpropyl)-1,4-diaminobutane]",,,,,,,,,,,,,,,,,,,,,cytotoxicity against a variety of cancer cell lines [37]: cytotoxic against a variety of cancer cell lines in submicromolar concentrations
"CC(CCNCCCCNCCC(C)N1CC1)N1CC1 (stereo not shown) [Synthesis Example 3, 2,13-Diaziridinyl-5,10-diazatetradecane]",4.79,21.4,3.24,27.5,3.63,3.31,29.5,30.9,30.9,19.1,23.4,13.2,63.1,6.17,12.6,14.8,55,26.3,41.7,20,GI50 [21]: 81.3 µM; GI50 [22]: 22.4 µM; GI50 [23]: 14.5 µM; GI50 [24]: 24 µM; GI50 [25]: 6.31 µM; GI50 [26]: 26.3 µM; GI50 [27]: 3.39 µM; GI50 [28]: 15.8 µM; GI50 [29]: 3.8 µM; GI50 [30]: 69.2 µM; GI50 [31]: 5.75 µM; GI50 [32]: 5.01 µM; GI50 [33]: 15.1 µM; GI50 [34]: 9.55 µM; GI50 [35]: > 100 µM; GI50 [36]: 35.5 µM
"C(CNCCCN1CC1)CNCCCN1CC1 [Synthesis Example 2, 1,11-Diaziridinyl-4,8-diazaundecane]",3.72,19.5,3.09,22.4,3.09,2.69,13.2,25.1,6.31,11.2,18.6,10.7,36.3,2.95,11.2,13.2,20.4,19.5,21.9,18.6,GI50 [21]: 19.5 µM; GI50 [22]: 26.3 µM; GI50 [23]: 10.7 µM; GI50 [24]: 14.5 µM; GI50 [25]: 11.2 µM; GI50 [26]: 18.2 µM; GI50 [27]: 3.98 µM; GI50 [28]: 6.92 µM; GI50 [29]: 3.39 µM; GI50 [30]: 28.2 µM; GI50 [31]: 3.89 µM; GI50 [32]: 4.07 µM; GI50 [33]: 3.89 µM; GI50 [34]: 6.76 µM; GI50 [35]: 14.5 µM; GI50 [36]: 17 µM
NCCCCN1CC1 [N-(4-aminobutyl)aziridine],,,,,,,,,,,,,,,,,,,,,cytotoxicity against prostatic carcinoma cells [38]: cytotoxic against prostatic carcinoma cells; effectiveness as substrate for the polyamine transporter [39]: less effective as a substrate for the polyamine transporter than the longer polyamines
"NCCCNCCCCN1CC1 [N-(4-aziridinylbutyl)-1,3-diaminopropane]",,,,,,,,,,,,,,,,,,,,,cytotoxicity against a variety of cancer cell lines [37]: cytotoxic against a variety of cancer cell lines in submicromolar concentrations
NCCCCN(CCCN)CCCNC(=O)CCCc1ccc(N(CCCl)CCCl)cc1 [chlorambucil-spermidine conjugate],,,,,,,,,,,,,,,,,,,,,production of DNA cross-links [40]: highly efficient at producing DNA cross-links compared with chlorambucil per se; in vivo potency [41]: in vivo potency does not reach the level predicted from in vitro studies; uptake by cells [42]: not taken up well by cells
